Reference: ChEMBL document CHEMBL2074352, “N-glycosylation controls functional activity of Oatp1, an organic anion transporter” (Am J Physiol Gastrointest Liver Physiol, 2003)

Biological target: T1, Solute carrier organic anion transporter family member 1A1 (Rattus norvegicus, UniProt P46720)
T1 sequence (P46720 whole entry): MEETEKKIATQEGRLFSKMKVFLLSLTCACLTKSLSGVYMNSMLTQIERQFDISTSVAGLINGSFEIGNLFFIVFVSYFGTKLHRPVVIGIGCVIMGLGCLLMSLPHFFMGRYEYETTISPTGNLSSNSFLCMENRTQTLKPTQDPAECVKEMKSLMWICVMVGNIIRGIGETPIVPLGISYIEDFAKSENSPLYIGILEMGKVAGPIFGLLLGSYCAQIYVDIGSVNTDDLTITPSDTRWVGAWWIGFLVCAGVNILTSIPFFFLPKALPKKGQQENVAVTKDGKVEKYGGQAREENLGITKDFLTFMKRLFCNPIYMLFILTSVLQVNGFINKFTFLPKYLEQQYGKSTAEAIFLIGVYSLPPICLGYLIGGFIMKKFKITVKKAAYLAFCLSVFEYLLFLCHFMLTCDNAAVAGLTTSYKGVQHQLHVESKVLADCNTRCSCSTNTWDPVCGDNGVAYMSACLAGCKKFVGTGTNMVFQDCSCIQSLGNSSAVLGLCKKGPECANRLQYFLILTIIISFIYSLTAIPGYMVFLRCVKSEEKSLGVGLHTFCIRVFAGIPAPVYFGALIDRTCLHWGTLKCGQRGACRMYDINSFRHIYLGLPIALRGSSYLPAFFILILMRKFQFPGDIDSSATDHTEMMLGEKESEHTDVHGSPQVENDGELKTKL
Assay: TP_TRANSPORTER: uptake in Oatp1-expressing Saccharomyces cerevisiae secretory vesicle
Format: functional, subcellular

Row | Activity | Structure (SMILES)
1 | is not a substrate [-] | C[C@]12CC[C@@H]3c4ccc(OS(=O)(=O)O)cc4CC[C@H]3[C@@H]1CCC2=O [ESTRONE SULFURIC ACID]
2 | is not a substrate [-] | CCCCC/C=C\C\C=C/C=C/C=C/[C@@H](SC[C@@H](NC(=O)CC[C@H](N)C(=O)O)C(=O)NCC(=O)O)[C@@H](O)CCCC(=O)O [LEUKOTRIEN C4]
